According to article PMC5454994, “Assembly of Hepatocyte Spheroids Using Magnetic 3D Cell Culture for CYP450 Inhibition/Induction” (International Journal of Molecular Sciences, 2017):

Columns and labels:
CYP1A2 = molecular target: T1, CYP1A2 (Homo sapiens, UniProt P05177); assay: CYP1A2 activity (P450-Glo, Luciferin-1A2) in primary human hepatocyte spheroids and monolayers after 72 h drug exposure; assay type: in vitro ADME; conditions: primary human hepatocytes, 72 h exposure
T1 sequence (P05177 1-516): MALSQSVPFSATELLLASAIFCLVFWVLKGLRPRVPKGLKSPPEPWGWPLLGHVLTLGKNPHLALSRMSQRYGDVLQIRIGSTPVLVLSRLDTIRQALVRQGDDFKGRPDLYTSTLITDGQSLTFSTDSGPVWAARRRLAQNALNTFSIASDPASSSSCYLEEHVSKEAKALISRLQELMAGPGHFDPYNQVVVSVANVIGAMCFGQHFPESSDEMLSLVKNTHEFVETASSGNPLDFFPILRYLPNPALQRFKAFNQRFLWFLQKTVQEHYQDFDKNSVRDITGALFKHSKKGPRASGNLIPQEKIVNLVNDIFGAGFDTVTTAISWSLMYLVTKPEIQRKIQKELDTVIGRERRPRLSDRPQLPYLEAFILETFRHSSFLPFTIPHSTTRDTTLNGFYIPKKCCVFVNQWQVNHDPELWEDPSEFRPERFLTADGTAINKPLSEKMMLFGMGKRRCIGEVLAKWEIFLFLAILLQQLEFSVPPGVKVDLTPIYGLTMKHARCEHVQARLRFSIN

CYP2B6 = molecular target: T2, CYP2B6 (Homo sapiens, UniProt P20813); conditions: CYP2B6 replicates, primary human hepatocytes, 72 h exposure
T2 sequence (P20813 1-491): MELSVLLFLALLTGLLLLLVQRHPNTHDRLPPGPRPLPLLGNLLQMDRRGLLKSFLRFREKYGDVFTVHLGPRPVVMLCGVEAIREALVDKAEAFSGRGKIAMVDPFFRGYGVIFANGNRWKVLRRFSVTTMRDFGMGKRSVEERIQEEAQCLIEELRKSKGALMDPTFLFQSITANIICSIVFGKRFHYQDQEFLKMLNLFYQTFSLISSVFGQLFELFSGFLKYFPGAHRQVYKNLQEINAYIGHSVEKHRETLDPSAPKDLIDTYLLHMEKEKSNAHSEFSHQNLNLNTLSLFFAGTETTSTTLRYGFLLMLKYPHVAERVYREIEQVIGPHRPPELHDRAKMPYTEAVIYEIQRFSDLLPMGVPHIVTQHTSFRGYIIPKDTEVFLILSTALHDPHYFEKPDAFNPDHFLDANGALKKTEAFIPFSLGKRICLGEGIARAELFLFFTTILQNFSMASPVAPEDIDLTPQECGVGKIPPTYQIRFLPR

`COc1ccc2[nH]c([S+]([O-])Cc3ncc(C)c(OC)c3C)nc2c1` (stereo not drawn) [omeprazole] was tested, and the “CYP1A2 activity in the presence of toxicity” value (CYP1A2) was “no observed decrease in CYP activity despite toxicity” and the “CYP1A2 induction, monolayers compared to spheroids” value (CYP1A2; normalized to control) was “higher in monolayers compared to spheroids”.

`CO[C@H]1/C=C/O[C@@]2(C)Oc3c(C)c(O)c4c(O)c(c(/C=N/N5CCN(C)CC5)c(O)c4c3C2=O)NC(=O)/C(C)=C\C=C\[C@H](C)[C@H](O)[C@@H](C)[C@@H](O)[C@@H](C)[C@H](OC(C)=O)[C@@H]1C` [rifampicin] was tested, and the “CYP2B6 activity in the presence of toxicity” value (CYP2B6) was “no observed decrease in CYP activity despite toxicity”.
